Data from US11306101B2 (Celgene Corporation, priority 2019, dated 2022).

Target: T1, CK1α (Homo sapiens, UniProt P48729+Q96SW2)
T1 construct: expressed in transfected cells
Assay: CK1α ePL degradation assay in MDS-L cells
Type: cell-based
Conditions: MDS-L cells expressing ePL-tagged CK1α; for DC50: concentration giving 50% CK1α degradation vs DMSO control; for Y: lowest measured CK1α level normalized to DMSO control
Summary of the method: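 Degradation efficiency is reported as Y value, the minimum CK1α level (percent of DMSO control) across doses. Readout used InCELL Hunter luminescent detection after MDS-L cell exposure at 37° C for stated times, doses 10 μM down to 0.0005 μM in 3-fold steps.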

T1 sequence (P48729 whole entry): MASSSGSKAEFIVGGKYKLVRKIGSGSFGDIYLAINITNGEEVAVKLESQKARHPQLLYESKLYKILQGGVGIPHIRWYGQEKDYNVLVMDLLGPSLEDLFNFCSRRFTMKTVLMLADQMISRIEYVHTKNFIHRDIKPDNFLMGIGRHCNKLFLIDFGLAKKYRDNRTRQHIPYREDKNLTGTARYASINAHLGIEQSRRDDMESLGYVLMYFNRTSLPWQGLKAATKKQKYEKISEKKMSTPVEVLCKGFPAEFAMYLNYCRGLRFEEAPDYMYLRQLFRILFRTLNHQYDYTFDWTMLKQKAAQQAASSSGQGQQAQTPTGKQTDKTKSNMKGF
T1 sequence (Q96SW2 whole entry): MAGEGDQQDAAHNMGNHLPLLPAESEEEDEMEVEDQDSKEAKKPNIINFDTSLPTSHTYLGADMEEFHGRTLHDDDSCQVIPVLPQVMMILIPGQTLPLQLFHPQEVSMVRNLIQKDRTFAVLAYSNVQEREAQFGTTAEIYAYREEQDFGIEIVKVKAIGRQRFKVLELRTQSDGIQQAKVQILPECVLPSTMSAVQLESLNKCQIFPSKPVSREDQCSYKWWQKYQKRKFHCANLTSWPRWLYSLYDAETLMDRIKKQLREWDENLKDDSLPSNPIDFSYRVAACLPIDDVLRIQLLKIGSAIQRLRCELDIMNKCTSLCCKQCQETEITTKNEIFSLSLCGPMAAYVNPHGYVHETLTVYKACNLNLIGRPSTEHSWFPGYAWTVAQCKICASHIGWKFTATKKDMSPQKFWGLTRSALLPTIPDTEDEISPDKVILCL
T1 sequence (Q16531 whole entry partner): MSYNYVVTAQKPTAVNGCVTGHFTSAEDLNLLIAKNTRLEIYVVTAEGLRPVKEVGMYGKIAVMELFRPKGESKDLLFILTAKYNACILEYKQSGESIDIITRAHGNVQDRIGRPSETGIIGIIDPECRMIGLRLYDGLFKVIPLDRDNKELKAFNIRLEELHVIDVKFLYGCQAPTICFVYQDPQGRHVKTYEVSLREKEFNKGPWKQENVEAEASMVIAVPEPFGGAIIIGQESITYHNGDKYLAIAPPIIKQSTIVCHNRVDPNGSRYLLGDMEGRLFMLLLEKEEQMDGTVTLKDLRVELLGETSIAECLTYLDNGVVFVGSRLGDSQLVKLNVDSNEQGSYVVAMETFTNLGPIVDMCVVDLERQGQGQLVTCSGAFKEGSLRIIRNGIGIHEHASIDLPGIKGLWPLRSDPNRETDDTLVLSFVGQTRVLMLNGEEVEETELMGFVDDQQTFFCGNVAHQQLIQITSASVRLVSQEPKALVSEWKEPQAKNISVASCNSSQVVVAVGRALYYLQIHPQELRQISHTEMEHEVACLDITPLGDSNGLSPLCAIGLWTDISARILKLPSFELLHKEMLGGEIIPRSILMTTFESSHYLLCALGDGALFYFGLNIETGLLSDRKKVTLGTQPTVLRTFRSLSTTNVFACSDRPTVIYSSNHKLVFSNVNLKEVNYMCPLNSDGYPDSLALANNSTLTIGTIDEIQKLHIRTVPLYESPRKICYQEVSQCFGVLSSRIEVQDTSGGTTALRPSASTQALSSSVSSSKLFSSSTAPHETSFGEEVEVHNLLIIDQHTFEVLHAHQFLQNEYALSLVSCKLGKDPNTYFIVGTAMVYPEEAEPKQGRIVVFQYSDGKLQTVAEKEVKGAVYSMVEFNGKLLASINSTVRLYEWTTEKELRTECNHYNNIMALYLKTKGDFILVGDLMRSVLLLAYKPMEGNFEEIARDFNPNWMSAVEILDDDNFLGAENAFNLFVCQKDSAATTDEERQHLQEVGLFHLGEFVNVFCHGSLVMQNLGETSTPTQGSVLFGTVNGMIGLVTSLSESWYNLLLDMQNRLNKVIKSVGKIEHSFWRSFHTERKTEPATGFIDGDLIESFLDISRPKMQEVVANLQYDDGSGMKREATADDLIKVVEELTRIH

In the case of O=C1CC[C@@H](N2Cc3cc(C(=O)N[C@H](c4ccc(F)cc4)C(F)(F)F)ccc3C2=O)C(=O)N1 [Example 104, 2-((R)-2,6-dioxopiperidin-3-yl)-1-oxo-N-((R)-2,2,2-trifluoro-1-(4-fluorophenyl)ethyl)isoindoline-5-carboxamide], the DC50 is reported as less than 100 nM and the Y is reported as “* (a Y value (shown as *) of 0<Y≤20%)”.
CC(C)[C@H](NC(=O)c1ccc2c(c1)CN(C1CCC(=O)NC1=O)C2=O)c1ccccc1 (stereo partly drawn) [Example 154, 2-(2,6-dioxopiperidin-3-yl)-N-((S)-2-methyl-1-phenylpropyl)-1-oxoisoindoline-5-carboxamide] was tested, and the DC50 was less than 100 nM and the Y was “* (a Y value (shown as *) of 0<Y≤20%)”.
For O=C1CCC(N2Cc3cc(C(=O)N[C@H](c4ncccc4C(F)(F)F)C(F)(F)F)ccc3C2=O)C(=O)N1 (stereo partly drawn) [Example 116, 2-(2,6-dioxopiperidin-3-yl)-1-oxo-N-((R)-2,2,2-trifluoro-1-(3-(trifluoromethyl)pyridin-2-yl)ethyl)isoindoline-5-carboxamide], the DC50 was 100 to 500 nM and the Y was “** (a Y value (shown as**) of 20%<Y≤35%)”.
O=C1CCC(N2Cc3cc(C(=O)N[C@H](c4ccc(CN5CC(F)(F)C5)cc4)C(F)(F)F)ccc3C2=O)C(=O)N1 (stereo partly drawn) [Example 188, N-((R)-1-(4-((3,3-difluoroazetidin-1-yl)methyl)phenyl)-2,2,2-trifluoroethyl)-2-(2,6-dioxopiperidin-3-yl)-1-oxoisoindoline-5-carboxamide] was tested, and the DC50 was 100 to 500 nM and the Y was “** (a Y value (shown as**) of 20%<Y≤35%)”.
For O=C1CCC(N2Cc3cc(C(=O)N[C@H]([C@H]4CC[C@@H](O)CC4)C(F)(F)F)ccc3C2=O)C(=O)N1 (stereo partly drawn) [Example 62, 2-(2,6-dioxopiperidin-3-yl)-1-oxo-N-((R)-2,2,2-trifluoro-1-((1s,4S)-4-hydroxycyclohexyl)ethyl)isoindoline-5-carboxamide], the DC50 was 100 to 500 nM and the Y was “* (a Y value (shown as *) of 0<Y≤20%)”.
For O=C1CCC(N2Cc3c(ccc(C(=O)N[C@H](c4ccc(F)c(F)c4)C(F)(F)F)c3F)C2=O)C(=O)N1 (stereo partly drawn) [Example 113, N-((R)-1-(3,4-difluorophenyl)-2,2,2-trifluoroethyl)-2-(2,6-dioxopiperidin-3-yl)-4-fluoro-1-oxoisoindoline-5-carboxamide], the DC50 was 100 to 500 nM and the Y was “** (a Y value (shown as**) of 20%<Y≤35%)”.
Cc1ccc([C@H](C)NC(=O)c2ccc3c(c2)CN(C2CCC(=O)NC2=O)C3=O)cc1 (some centres unmarked) [Example 7] was tested, and the DC50 was less than 100 nM and the Y was “* (a Y value (shown as *) of 0<Y≤20%)”.
O=C1CCC(N2Cc3cc(C(=O)N[C@H](c4ncc(Cl)cc4Cl)C(F)(F)F)ccc3C2=O)C(=O)N1 (stereo partly drawn) [Example 184, N-((R)-1-(3,5-dichloropyridin-2-yl)-2,2,2-trifluoroethyl)-2-(2,6-dioxopiperidin-3-yl)-1-oxoisoindoline-5-carboxamide] was tested, and the DC50 was less than 100 nM and the Y was “* (a Y value (shown as *) of 0<Y≤20%)”.
In the case of CN(C)Cc1ccccc1[C@@H](NC(=O)c1ccc2c(c1)CN(C1CCC(=O)NC1=O)C2=O)C(F)(F)F (stereo partly drawn) [Example 192, N-((R)-1-(2-((dimethylamino)methyl)phenyl)-2,2,2-trifluoroethyl)-2-(2,6-dioxopiperidin-3-yl)-1-oxoisoindoline-5-carboxamide], the DC50 is reported as less than 100 nM and the Y is reported as “* (a Y value (shown as *) of 0<Y≤20%)”.
In the case of O=C1CCC(N2Cc3cc(C(=O)N[C@H](c4ccc(F)cc4C(F)(F)F)C(F)(F)F)ccc3C2=O)C(=O)N1 (stereo partly drawn) [Example 77, 2-(2,6-dioxopiperidin-3-yl)-1-oxo-N-((R)-2,2,2-trifluoro-1-(4-fluoro-2-(trifluoromethyl)phenyl)ethyl)isoindoline-5-carboxamide], the DC50 is reported as less than 100 nM and the Y is reported as “* (a Y value (shown as *) of 0<Y≤20%)”.
With O=C1CCC(N2Cc3c(ccc(C(=O)N[C@H](c4cccc(C(F)(F)F)c4)C(F)(F)F)c3F)C2=O)C(=O)N1 (stereo partly drawn) [Example 97, 2-(2,6-dioxopiperidin-3-yl)-4-fluoro-1-oxo-N-((R)-2,2,2-trifluoro-1-(3-(trifluoromethyl)phenyl)ethyl)isoindoline-5-carboxamide] the DC50 was 100 to 500 nM and the Y was “** (a Y value (shown as**) of 20%<Y≤35%)”.
In the case of O=C1CCC(N2Cc3cc(C(=O)N[C@H](c4ccc(OC(F)(F)F)cc4)C(F)(F)F)ccc3C2=O)C(=O)N1 (stereo partly drawn) [Example 41, 2-(2,6-dioxopiperidin-3-yl)-1-oxo-N-((R)-2,2,2-trifluoro-1-(4-(trifluoromethoxy)phenyl)ethyl)isoindoline-5-carboxamide], the DC50 is reported as 100 to 500 nM and the Y is reported as “* (a Y value (shown as *) of 0<Y≤20%)”.
In the case of C[C@H](NC(=O)c1ccc2c(c1)CN(C1CCC(=O)NC1=O)C2=O)c1ccc(Cl)cc1 (some centres unmarked) [Example 8], the DC50 is reported as less than 100 nM and the Y is reported as “* (a Y value (shown as *) of 0<Y≤20%)”.
In the case of O=C1CCC(N2Cc3cc(C(=O)N[C@@H](C(F)(F)F)C4(C(F)(F)F)CC4)ccc3C2=O)C(=O)N1 (stereo partly drawn) [Example 75, 2-(2,6-dioxopiperidin-3-yl)-1-oxo-N-((R)-2,2,2-trifluoro-1-(1-(trifluoromethyl)cyclopropyl)ethyl)isoindoline-5-carboxamide], the DC50 is reported as 100 to 500 nM and the Y is reported as “** (a Y value (shown as**) of 20%<Y≤35%)”.
For O=C1CCC(N2Cc3cc(C(=O)N[C@H](c4ccc(F)c(F)c4)C(F)(F)F)ccc3C2=O)C(=O)N1 (stereo partly drawn) [Example 73, N-((R)-1-(3,4-difluorophenyl)-2,2,2-trifluoroethyl)-2-(2,6-dioxopiperidin-3-yl)-1-oxoisoindoline-5-carboxamide], the DC50 was less than 100 nM and the Y was “* (a Y value (shown as *) of 0<Y≤20%)”.
With CN(C)Cc1ccc([C@@H](NC(=O)c2ccc3c(c2F)CN(C2CCC(=O)NC2=O)C3=O)C(F)(F)F)cc1 (stereo partly drawn) [Example 186, N-((R)-1-(4-((dimethylamino)methyl)phenyl)-2,2,2-trifluoroethyl)-2-(2,6-dioxopiperidin-3-yl)-4-fluoro-1-oxoisoindoline-5-carboxamide] the DC50 was less than 100 nM and the Y was “* (a Y value (shown as *) of 0<Y≤20%)”.
For O=C1CCC(N2Cc3cc(C(=O)N[C@H](c4ncc(F)cc4F)C(F)(F)F)ccc3C2=O)C(=O)N1 (stereo partly drawn) [Example 133, N-((R)-1-(3,5-difluoropyridin-2-yl)-2,2,2-trifluoroethyl)-2-(2,6-dioxopiperidin-3-yl)-1-oxoisoindoline-5-carboxamide], the DC50 was less than 100 nM and the Y was “* (a Y value (shown as *) of 0<Y≤20%)”.
With O=C1CCC(N2Cc3cc(C(=O)N[C@H](c4ncc(Cl)cc4F)C(F)(F)F)ccc3C2=O)C(=O)N1 (stereo partly drawn) [Example 127, N-((R)-1-(5-chloro-3-fluoropyridin-2-yl)-2,2,2-trifluoroethyl)-2-(2,6-dioxopiperidin-3-yl)-1-oxoisoindoline-5-carboxamide] the DC50 was less than 100 nM and the Y was “* (a Y value (shown as *) of 0<Y≤20%)”.
In the case of CC[C@@H](NC(=O)c1ccc2c(c1)CN(C1CCC(=O)NC1=O)C2=O)c1ccccc1 (some centres unmarked) [Example 118], the DC50 is reported as 100 to 500 nM and the Y is reported as “** (a Y value (shown as**) of 20%<Y≤35%)”.
With O=C1CCC(N2Cc3c(ccc(C(=O)N[C@H](c4ccccc4Cl)C(F)(F)F)c3F)C2=O)C(=O)N1 (stereo partly drawn) [Example 114, N-((R)-1-(2-chlorophenyl)-2,2,2-trifluoroethyl)-2-(2,6-dioxopiperidin-3-yl)-4-fluoro-1-oxoisoindoline-5-carboxamide] the DC50 was less than 100 nM and the Y was “* (a Y value (shown as *) of 0<Y≤20%)”.
For O=C1CCC(N2Cc3cc(C(=O)N[C@H](c4cccc(N5CCOCC5)c4)C(F)(F)F)ccc3C2=O)C(=O)N1 (stereo partly drawn) [Example 201, 2-(2,6-dioxopiperidin-3-yl)-1-oxo-N-((R)-2,2,2-trifluoro-1-(3-morpholinophenyl)ethyl)isoindoline-5-carboxamide], the DC50 was less than 100 nM and the Y was “* (a Y value (shown as *) of 0<Y≤20%)”.
O=C1CC[C@H](N2Cc3cc(C(=O)N[C@H](c4ncc(Cl)cc4F)C(F)(F)F)ccc3C2=O)C(=O)N1 [Example 193, N-((R)-1-(5-chloro-3-fluoropyridin-2-yl)-2,2,2-trifluoroethyl)-2-((S)-2,6-dioxopiperidin-3-yl)-1-oxoisoindoline-5-carboxamide] was tested, and the DC50 was less than 100 nM and the Y was “* (a Y value (shown as *) of 0<Y≤20%)”.
In the case of CC(C)[C@@H](NC(=O)c1ccc2c(c1)CN(C1CCC(=O)NC1=O)C2=O)c1ncccc1Cl (stereo partly drawn) [Example 171, N-((R)-1-(3-chloropyridin-2-yl)-2-methylpropyl)-2-(2,6-dioxopiperidin-3-yl)-1-oxoisoindoline-5-carboxamide], the DC50 is reported as 100 to 500 nM and the Y is reported as “** (a Y value (shown as**) of 20%<Y≤35%)”.
For C[C@H](NC(=O)c1ccc2c(c1)CN(C1CCC(=O)NC1=O)C2=O)C1CCC1 (some centres unmarked) [Example 9], the DC50 was less than 100 nM and the Y was “** (a Y value (shown as**) of 20%<Y≤35%)”.
C[C@H](NC(=O)c1ccc2c(c1)CN(C1CCC(=O)NC1=O)C2=O)c1cccc(Cl)c1 (some centres unmarked) [Example 15] was tested, and the DC50 was less than 100 nM and the Y was “* (a Y value (shown as *) of 0<Y≤20%)”.
With O=C1CCC(N2Cc3c(ccc(C(=O)N[C@@H](CC(F)(F)F)c4ccc(Cl)cc4)c3F)C2=O)C(=O)N1 (stereo partly drawn) [Example 129, N-((S)-1-(4-chlorophenyl)-3,3,3-trifluoropropyl)-2-(2,6-dioxopiperidin-3-yl)-4-fluoro-1-oxoisoindoline-5-carboxamide] the DC50 was 500 to 1000 nM and the Y was “*** (a Y value (shown as***) of 35%<Y<50%)”.
With O=C1CCC(N2Cc3cc(C(=O)N[C@H](c4ccccc4C(F)(F)F)C(F)(F)F)c(F)cc3C2=O)C(=O)N1 (stereo partly drawn) [Example 88, 2-(2,6-dioxopiperidin-3-yl)-6-fluoro-1-oxo-N-((R)-2,2,2-trifluoro-1-(2-(trifluoromethyl)phenyl)ethyl)isoindoline-5-carboxamide] the DC50 was less than 100 nM and the Y was “* (a Y value (shown as *) of 0<Y≤20%)”.
O=C1CCC(N2Cc3c(ccc(C(=O)N[C@H](c4ccc(F)cn4)C(F)(F)F)c3F)C2=O)C(=O)N1 (stereo partly drawn) [Example 115, 2-(2,6-dioxopiperidin-3-yl)-4-fluoro-1-oxo-N-((R)-2,2,2-trifluoro-1-(5-fluoropyridin-2-yl)ethyl)isoindoline-5-carboxamide] was tested, and the DC50 was 100 to 500 nM and the Y was “** (a Y value (shown as**) of 20%<Y≤35%)”.
